Reference: patent US8389523B2, “Substituted quinoxaline and an agrochemical composition thereof” (Kumiai Chemical Industry Co., Ltd., priority 2007, dated 2013)

Legend:
Format in all cases: in vivo
Parameters in all cases: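 grade 0 to 5 of growth suppression where 5 is 90% or more and 0 below 10%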
[1] = test system: Monochoria vaginalis (Burm. f.) Presl var. plantaginea (Roxb.) Solms-Laub.; test: Herbicidal effects in paddy field soil treatment (Test Example 1); settings: paddy field soil treatment; 1000 g of the active ingredient per hectare; wettable powder added dropwise on water surface; 21st day after treatment
Summary of the method: (§1)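 Seeds sown in puddled paddy soil, waterlogged to 3 cm depth; next day a diluted wettable powder applied dropwise to the water surface at 1000 g active ingredient per hectare. Herbicidal effect scored 21 days after treatment in a greenhouse.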

[2] = test system: Echinochloa oryzicola Vasing; test: as above; settings: paddy field soil treatment; 1000 g of the active ingredient per hectare; wettable powder added dropwise on water surface; 21st day after treatment
Summary of the method: as §1

[3] = test system: Scirpus juncoides Roxb. var. ohwianus. T. Koyama; test: as above; settings: paddy field soil treatment; 1000 g of the active ingredient per hectare; wettable powder added dropwise on water surface; 21st day after treatment
Summary of the method: as §1

[4] = test system: Abutilon theophrasti medicus; test: Herbicidal effects in upland field soil treatment (Test Example 2); settings: 1000 g active ingredient per hectare, 21st day after treatment, criteria of Table 138
Summary of the method: (§2)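 Pre-emergence test: seeds sown in upland soil, then soil surface sprayed with diluted wettable powder at 1000 g active ingredient per hectare (1000 liters per hectare). Greenhouse growth; herbicidal effect scored on day 21 against set criteria.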

Amaranthus viridis L. [5] = test: as above; settings: 1000 g active ingredient per hectare, 21st day after treatment, criteria of Table 138
Summary of the method: as §2

[6] = test system: Abutilon theophrasti medicus; test: Herbicidal effects in upland field foliar treatment (Test Example 3); settings: 1000 g active ingredient per hectare, 14th day after treatment, criteria of Table 138
Summary of the method: (§3)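 Plants grown two weeks from seed in upland soil in a greenhouse, then sprayed overall with water-diluted wettable powder at 1000 L/ha delivering 1000 g active ingredient/ha. Herbicidal effect scored by rating criteria 14 days after treatment.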

[7] = test system: Echinochloa crus-galli (L.) P. Beauv. var. crus-galli; test: as above; settings: 1000 g active ingredient per hectare, 14th day after treatment, criteria of Table 138
Summary of the method: as §3

Amaranthus viridis L. [8] = test: as above; settings: 1000 g active ingredient per hectare, 14th day after treatment, criteria of Table 138
Summary of the method: as §3

SMILES | Herbicidal effects index, Monochoria vaginalis (Burm. f.) Presl var. plantaginea (Roxb.) Solms-Laub. [1] | Herbicidal effects index, Echinochloa oryzicola Vasing [2] | Herbicidal effects index, Scirpus juncoides Roxb. var. ohwianus. T. Koyama [3] | herbicidal effect (index) on Abutilon theophrasti medicus [4] | herbicidal effect (index) on Amaranthus viridis L. (Amaranthus viridis L. [5]) | herbicidal effect (index) on Abutilon theophrasti medicus [6] | herbicidal effect (index) on Echinochloa crus-galli (L.) P. Beauv. var. crus-galli [7] | herbicidal effect (index) on Amaranthus viridis L. (Amaranthus viridis L. [8])
Cc1cc(-n2c(=O)c(C(=O)C3=C(O)CCCC3=O)nc3ccccc32)no1 [I-145] | 5 | 5 | 5 | 5 | 5 | 5 | 5 | 5
Cc1cc(-n2c(=O)c(C(=O)C3=C(O)C4CCC(C4)C3=O)nc3ccccc32)no1 (stereo not drawn) [I-148] | 5 | 5 | 5 | 5 | 5 | 5 | 5 | 5
Cc1cc(-n2c(=O)c(C(=O)C3=C(O)C(C)(C)C(=O)C(C)(C)C3=O)nc3ccccc32)no1 [I-149] | 5 | 5 | 4 | 5 | 5 | 5 | 5 | 5
Cc1cc(-n2c(=O)c(C(=O)C3=C(O)CCCC3=O)nc3ccccc32)sn1 [I-156] | 5 | 5 | 5 | 5 | 5 | 5 | 5 | 5
Cn1nc(C(F)(F)F)cc1-n1c(=O)c(C(=O)C2=C(O)CCCC2=O)nc2ccccc21 [I-158] | 5 | 5 | 5 | 5 | 5 | 5 | 5 | 5
O=C1CCCC(O)=C1C(=O)c1nc2ccccc2n(-c2nccs2)c1=O [I-159] | 5 | 5 | 5 | 5 | 5 | 5 | 4 | 5
Cc1csc(-n2c(=O)c(C(=O)C3=C(O)CCCC3=O)nc3ccccc32)n1 [I-160] | 5 | 5 | 5 | 5 | 5 | 5 | 5 | 5
Cc1nc(-n2c(=O)c(C(=O)C3=C(O)CCCC3=O)nc3ccccc32)no1 [I-163] | 5 | 4 | 5 | 5 | 5 | 5 | 4 | 5
O=C1CCCC(O)=C1C(=O)c1nc2ccccc2n(-c2ccccn2)c1=O [I-171] | 5 | 5 | 5 | 5 | 5 | 5 | 5 | 5
Cc1cccc(-n2c(=O)c(C(=O)C3=C(O)CCCC3=O)nc3ccccc32)n1 [I-173, 3-(2-hydroxy-6-oxo-1-cyclohexenecarbonyl)-1-(6-methyl-2-pyridyl)-quinoxalin-2 (1H)-one] | 5 | 5 | 5 | 5 | 5 | 5 | 5 | 5
O=C1CCCC(O)=C1C(=O)c1nc2ccccc2n(-c2ccc(F)cn2)c1=O [I-176] | 5 | 5 | 5 | 5 | 5 | 5 | 5 | 5
O=C1CCCC(O)=C1C(=O)c1nc2ccccc2n(-c2ccc(Cl)cn2)c1=O [I-177] | 5 | 5 | 5 | 5 | 5 | 5 | 5 | 5
O=C1CCCC(O)=C1C(=O)c1nc2ccccc2n(-c2ccc(C(F)(F)F)cn2)c1=O [I-179] | 5 | 5 | 5 | 5 | 5 | 5 | 5 | 5
COc1ccc(-n2c(=O)c(C(=O)C3=C(O)CCCC3=O)nc3ccccc32)nc1 [I-180] | 5 | 4 | 5 | 5 | 5 | 5 | 4 | 5
Cc1ccnc(-n2c(=O)c(C(=O)C3=C(O)CCCC3=O)nc3ccccc32)c1 [I-182] | 5 | 5 | 5 | 5 | 5 | 5 | 5 | 5
O=C1CCCC(O)=C1C(=O)c1nc2ccccc2n(-c2cccnc2)c1=O [I-185] | 5 | 5 | 5 | 5 | 5 | 5 | 5 | 5
COc1ccc(-n2c(=O)c(C(=O)C3=C(O)CCCC3=O)nc3ccccc32)cn1 [I-189] | 5 | 5 | 5 | 5 | 5 | 5 | 4 | 5
COc1cc(OC)nc(-n2c(=O)c(C(=O)C3=C(O)CCCC3=O)nc3ccccc32)n1 [I-197] | 5 | 5 | 5 | 5 | 5 | 5 | 5 | 5
